System: Hartley guinea pigs
Test: Histamine-induced bronchoconstriction following seven days of oral gavage in anesthetized, ventilated guinea pigs
Assay type: in vivo, guinea pig
Conditions: for Change from baseline Respiratory Resistance (ventilator pressure), Average RR / Change from baseline Respiratory Resistance (ventilator pressure), Average VP: n=3
Text: In an embodiment, the pharmacodynamics of a composition comprising 15-HEPE as disclosed herein may be examined using a model of a lung disease or disorder. In a more detailed embodiment, the effects of a composition comprising a vehicle, a positive control or 15-HEPE on ventilator pressure in histamine challenged guinea pigs serves as a model for the pharmacodynamics in asthma. In an exemplary method, guinea pigs are first dosed with compositions comprising a vehicle, a positive control or 15-HEPE for seven days. The treated guinea pigs can then be anesthetized and exposed to a nebulized bronchoconstictor to determine if 15-HEPE can reduce the increase in ventilatory pressure induced by a bronchoconstrictor. This serves as an effective model for asthma and other lung diseases. The guinea pig is a reliable animal model in respiratory research due to their respiratory sensitivity and their expression of similar respiratory reactions to those observed in humans. […] Adult male Hartley guinea pigs weighing approximately 450-500 g were acclimated least 5 days before the day of the beginning of the oral gavages. Animals were assigned to one of four groups (low dose, high dose, vehicle and positive control) and were double-housed per group during acclimation period. The test article was formulated using olive oil as the vehicle. A low and a high dose of 15-HEPE (50 mg/kg and 500 mg/kg) was formulated. A 1 mg/ml stock solution of bambuterol was prepared in an aqueous solution, and was then mixed with olive oil in the gavage syringe for the […]. The stock solution was stored at −20° C., but was used at room temperature and was considered stable for the duration of the experiment. A 5 μg/ml stock solution of histamine dihydrochloride (Sigma Aldrich) was prepared in a saline solution (0.9% NaCl). The stock solution was stored at 4° C. The expiration date was set at 14 days after preparation. The concentrations of positive control, (bambuterol 0.27 mg/kg/day) and the hypertensor (histamine 0.184, 0.919 and 1.84 μg/kg) were selected based on literature references. Each group received the designated compound by oral gavage using a 1 ml syringe. The dosing schedule was as follows: • Vehicle (olive oil) • Bambuterol 0.27 mg/kg/day • 15-HEPE 50 mg/kg/day • 15-HEPE 500 mg/kg/day The stock solutions were administered once per day for seven consecutive days. On the seventh dosage day the animals underwent surgery two hours after the oral feeding. All animal care and vivarium maintenance were recorded, with documents kept at the test facility. Guinea pigs were anesthetized with an intraperitoneal injection of urethane (1.5 g/kg). A tracheotomy was performed and the animals were mechanically ventilated throughout the experiment. The ventilatory pressure was recorded and analyzed for signs of bronchospasm. A pulse oxymeter was attached to each animal's hind paw to obtain heart beat and oxygen saturation on the anaesthetized guinea pigs to continuously monitor the general condition of the animals during the surgical procedure. Following baseline measurements, three doses of histamine (0.184, 0.919 and 1.84 μg/kg) were nebulized (constant volume tidal, 60 respirations per minute, 7.5 ml/sec), with an interval of 20 minutes between each dose, or until a steady state was reached. Respiratory resistance, heart rate, and oxygen saturation were monitored continuously for a period of about 1 hour post challenge. At the end of the experiment, the animals were euthanized by exsanguination. Clampfit 10.2.0.14 analysis software (Axon Instruments), installed on networked personal computers running Microsoft Windows was used. Clampfit 10.2.0.14 has been fully validated in the connected context in which it was used. The graphics software for illustrations is Microsoft Office Excel 2007 installed on networked personal computers running Microsoft Windows. […]

[1] = 15-HEPE 500 mg/kg/day gavage 7 days, nebulized histamine 0.184 (μg/kg)
[2] = 15-HEPE 500 mg/kg/day gavage 7 days, nebulized histamine 0.919 (μg/kg)
[3] = 15-HEPE 500 mg/kg/day gavage 7 days, nebulized histamine 1.84 (μg/kg)
[4] = bambuterol 0.27 mg/kg/day gavage 7 days, nebulized histamine 0.184 (μg/kg)
[5] = bambuterol 0.27 mg/kg/day gavage 7 days, nebulized histamine 0.919 (μg/kg)
[6] = bambuterol 0.27 mg/kg/day gavage 7 days, nebulized histamine 1.84 (μg/kg)

CCC=CCC(O)C=CC=CCC=CCC=CCCCC(=O)O (stereo not shown) [15-HEPE, 15-Hydroxy-eicosa-5,8,11,13,17-pentaenoic acid]
Change from baseline Respiratory Resistance (ventilator pressure), Guinea pig #1 [1]: 0.2098 mmHg
Change from baseline Respiratory Resistance (ventilator pressure), Guinea pig #2 [1]: 1.657 mmHg
Change from baseline Respiratory Resistance (ventilator pressure), Guinea pig #3 [1]: 0.6489 mmHg
Change from baseline Respiratory Resistance (ventilator pressure), Average RR [1]: 0.84 mmHg
Change from baseline Respiratory Resistance (ventilator pressure), Guinea pig #1 [2]: 0.8494 mmHg
Change from baseline Respiratory Resistance (ventilator pressure), Guinea pig #2 [2]: 1.37 mmHg
Change from baseline Respiratory Resistance (ventilator pressure), Guinea pig #3 [2]: 2.34 mmHg
Change from baseline Respiratory Resistance (ventilator pressure), Average RR [2]: 1.52 mmHg
Change from baseline Respiratory Resistance (ventilator pressure), Guinea pig #1 [3]: 2.169 mmHg
Change from baseline Respiratory Resistance (ventilator pressure), Guinea pig #2 [3]: 1.791 mmHg
Change from baseline Respiratory Resistance (ventilator pressure), Guinea pig #3 [3]: 3.913 mmHg
Change from baseline Respiratory Resistance (ventilator pressure), Average RR [3]: 2.62 mmHg
lung ventilatory pressure (test animals challenged with a bronchoconstrictor, result in words): improve lung ventilatory pressure

CN(C)C(=O)Oc1cc(OC(=O)N(C)C)cc(C(O)CNC(C)(C)C)c1 (stereo not shown) [Bambuterol, bambuterol, reference compound]
Change from baseline Respiratory Resistance (ventilator pressure), Guinea pig #1 [4]: 0.2759 mmHg
Change from baseline Respiratory Resistance (ventilator pressure), Guinea pig #2 [4]: −0.05857 mmHg
Change from baseline Respiratory Resistance (ventilator pressure), Guinea pig #3 [4]: 1.238 mmHg
Change from baseline Respiratory Resistance (ventilator pressure), Average VP [4]: 0.48 mmHg
Change from baseline Respiratory Resistance (ventilator pressure), Guinea pig #1 [5]: 1.099 mmHg
Change from baseline Respiratory Resistance (ventilator pressure), Guinea pig #2 [5]: 1.219 mmHg
Change from baseline Respiratory Resistance (ventilator pressure), Guinea pig #3 [5]: 2.266 mmHg
Change from baseline Respiratory Resistance (ventilator pressure), Average VP [5]: 1.53 mmHg
Change from baseline Respiratory Resistance (ventilator pressure), Guinea pig #1 [6]: 2.215 mmHg
Change from baseline Respiratory Resistance (ventilator pressure), Guinea pig #2 [6]: 1.945 mmHg
Change from baseline Respiratory Resistance (ventilator pressure), Guinea pig #3 [6]: 2.651 mmHg
Change from baseline Respiratory Resistance (ventilator pressure), Average VP [6]: 2.27 mmHg
